In patent publication US20100216779A1 (GLAXOSMITHKLINE LLC, priority 2007, published 2010):

Assays:
Format in all cases: cell-based
COLO205 (colon) = experiment: Inhibition of cell proliferation, CellTiter-Glo, COLO205; conditions: Homo sapiens, COLO 205, 72 h
In short: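 Exponentially growing COLO205 cells in medium with 10% FBS were plated below 2000 cells/well at 37 °C, 5% CO2. Untreated wells served as controls.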

[1] = tested on: NCI-H929 (multiple myeloma); experiment: Inhibition of cell proliferation, CellTiter-Glo, NCI-H929; conditions: Homo sapiens, 72 h
Experimental: C. Inhibition of Cell Proliferation
Cell proliferation was measured by either CellTiter-Glo (measures cellular ATP level as a surrogate for total cell number) or by InCell analyzer (counts number of nuclei as a measure of cell number). For CellTiter-Glo assay, exponentially growing cell lines of different tumor origins, cultured in appropriate media containing 10% fetal bovine serum at 37° C. in a 5% CO2 incubator, were plated at low density (less than 2000 cells/well) in 96-well plates. Twenty four hours post-plating, cells were treated with different concentrations of test compounds ranging from 30 uM to 1.5 nM. Several wells were left untreated as a control. Seventy two hours post-treatment, cell numbers were determined using 50-100 ul per well of CellTiter-Glo (Promega #G7573). Plates were incubated at 37° C. for 30 minutes and the chemiluminescent signal was read on the Victor V or Envison 2100 reader. […]

[2] = target: T1, human IGF-1R (NIH-3T3 cells over expressing human IGF-1R) (Homo sapiens, UniProt P08069); experiment: IGF-1R cellular autophosphorylation (DELFIA); conditions: IGF-1 stimulated
T1 construct: expressed in transfected cells; host or cells: NIH-3T3 (mouse fibroblasts)
T1 sequence (P08069 31-1367): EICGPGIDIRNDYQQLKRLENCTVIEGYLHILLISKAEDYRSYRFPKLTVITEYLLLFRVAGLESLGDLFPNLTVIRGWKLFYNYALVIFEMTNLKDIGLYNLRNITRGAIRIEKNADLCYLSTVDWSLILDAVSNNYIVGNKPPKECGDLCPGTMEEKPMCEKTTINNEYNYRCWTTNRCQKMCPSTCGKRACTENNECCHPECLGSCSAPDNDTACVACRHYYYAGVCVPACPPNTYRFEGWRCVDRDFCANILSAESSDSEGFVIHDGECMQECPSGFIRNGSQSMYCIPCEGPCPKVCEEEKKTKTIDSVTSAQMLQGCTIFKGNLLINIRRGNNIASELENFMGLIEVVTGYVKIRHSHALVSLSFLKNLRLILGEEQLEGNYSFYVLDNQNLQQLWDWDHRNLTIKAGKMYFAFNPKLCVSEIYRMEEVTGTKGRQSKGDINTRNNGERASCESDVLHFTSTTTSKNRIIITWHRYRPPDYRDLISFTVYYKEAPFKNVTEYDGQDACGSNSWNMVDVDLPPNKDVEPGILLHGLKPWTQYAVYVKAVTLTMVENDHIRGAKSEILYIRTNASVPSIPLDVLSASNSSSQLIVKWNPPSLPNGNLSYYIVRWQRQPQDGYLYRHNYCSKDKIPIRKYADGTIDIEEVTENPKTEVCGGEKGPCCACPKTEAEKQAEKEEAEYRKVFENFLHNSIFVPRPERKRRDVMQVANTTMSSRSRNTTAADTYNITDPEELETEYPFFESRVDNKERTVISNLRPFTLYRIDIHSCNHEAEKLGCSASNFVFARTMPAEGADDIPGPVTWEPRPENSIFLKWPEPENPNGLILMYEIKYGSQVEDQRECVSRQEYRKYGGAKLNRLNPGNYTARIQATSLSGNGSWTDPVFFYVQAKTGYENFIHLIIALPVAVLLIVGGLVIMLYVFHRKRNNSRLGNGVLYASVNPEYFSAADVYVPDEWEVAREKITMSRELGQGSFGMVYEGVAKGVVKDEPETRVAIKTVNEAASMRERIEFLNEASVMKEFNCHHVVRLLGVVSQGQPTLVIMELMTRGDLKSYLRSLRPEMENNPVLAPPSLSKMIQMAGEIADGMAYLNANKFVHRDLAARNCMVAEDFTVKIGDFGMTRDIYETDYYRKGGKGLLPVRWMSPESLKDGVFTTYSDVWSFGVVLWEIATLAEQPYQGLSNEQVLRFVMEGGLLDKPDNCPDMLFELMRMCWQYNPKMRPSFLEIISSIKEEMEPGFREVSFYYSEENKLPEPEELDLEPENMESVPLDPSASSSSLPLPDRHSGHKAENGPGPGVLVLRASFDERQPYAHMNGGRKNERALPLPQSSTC
In short: (§1)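 Readout: DELFIA on lysates, with anti-IGF-1R or anti-IR capture and europium anti-pTyr detection, expressed relative to 100% ligand-stimulated signal. Human IGF-1R- or IR-overexpressing NIH-3T3 cells got compound (1.5 nM–30 uM) for 2 h before 15 min IGF-1 (30 ng/mL) or insulin (3 ug/mL).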

[3] = target: T2, IR (NIH-3T3 cells over expressing human IGF-1R or IR) (Homo sapiens, UniProt P06213); experiment: IR cellular autophosphorylation (DELFIA); conditions: NIH-3T3 cells over expressing IR, insulin stimulated
T2 construct: expressed in transfected cells; host or cells: NIH-3T3 (mouse fibroblasts)
T2 sequence (P06213 28-1382): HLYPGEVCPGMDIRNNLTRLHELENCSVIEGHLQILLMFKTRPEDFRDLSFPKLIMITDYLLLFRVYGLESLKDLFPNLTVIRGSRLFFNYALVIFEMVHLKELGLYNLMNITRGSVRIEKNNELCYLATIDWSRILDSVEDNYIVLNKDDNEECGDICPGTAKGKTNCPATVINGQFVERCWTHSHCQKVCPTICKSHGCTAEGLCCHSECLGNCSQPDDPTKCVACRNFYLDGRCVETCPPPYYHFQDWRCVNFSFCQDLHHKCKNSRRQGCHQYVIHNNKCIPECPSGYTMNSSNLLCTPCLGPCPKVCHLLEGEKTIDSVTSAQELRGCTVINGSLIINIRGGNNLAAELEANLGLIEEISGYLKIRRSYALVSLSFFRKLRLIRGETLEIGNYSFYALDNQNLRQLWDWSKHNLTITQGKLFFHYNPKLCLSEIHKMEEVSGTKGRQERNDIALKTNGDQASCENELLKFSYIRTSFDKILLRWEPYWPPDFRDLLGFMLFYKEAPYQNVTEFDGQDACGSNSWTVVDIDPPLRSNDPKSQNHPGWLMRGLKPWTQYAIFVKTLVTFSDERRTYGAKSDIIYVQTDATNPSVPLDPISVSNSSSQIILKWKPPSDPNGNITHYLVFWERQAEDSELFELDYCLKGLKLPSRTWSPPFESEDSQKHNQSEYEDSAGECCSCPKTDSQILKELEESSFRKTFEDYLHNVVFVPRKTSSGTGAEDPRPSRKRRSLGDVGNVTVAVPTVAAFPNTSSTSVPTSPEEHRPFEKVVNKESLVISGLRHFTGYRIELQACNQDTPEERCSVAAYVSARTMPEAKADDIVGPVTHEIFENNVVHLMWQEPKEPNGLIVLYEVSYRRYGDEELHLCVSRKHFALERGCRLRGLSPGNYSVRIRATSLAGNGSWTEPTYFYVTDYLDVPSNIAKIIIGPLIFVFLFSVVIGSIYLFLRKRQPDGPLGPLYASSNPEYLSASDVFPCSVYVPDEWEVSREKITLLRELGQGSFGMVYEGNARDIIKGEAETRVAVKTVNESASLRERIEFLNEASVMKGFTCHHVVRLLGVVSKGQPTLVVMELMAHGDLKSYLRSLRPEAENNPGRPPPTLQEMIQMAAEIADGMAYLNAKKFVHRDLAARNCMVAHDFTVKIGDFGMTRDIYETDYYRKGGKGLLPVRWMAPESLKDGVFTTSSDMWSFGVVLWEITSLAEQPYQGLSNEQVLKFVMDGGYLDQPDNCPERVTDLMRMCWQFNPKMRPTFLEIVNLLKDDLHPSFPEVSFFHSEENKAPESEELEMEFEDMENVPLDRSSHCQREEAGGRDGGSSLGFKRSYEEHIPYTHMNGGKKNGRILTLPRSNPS
In short: as §1

SMILES	IC50 (COLO205 (colon)) [nM]	IC50 [1] [nM]	IC50 [2] [nM]	IC50 [3] [nM]
CCCN1CCC(c2ccc(Nc3nccc(-c4c(-c5ccc(OCC)c(C(=O)Nc6c(F)cccc6F)c5)nc5ccccn45)n3)c(OCC)c2)CC1 [Example 156, N-(2,6-difluorophenyl)-2-(ethyloxy)-5-[3-(2-{[2-(ethyloxy)-4-(1-propyl-4-piperidinyl)phenyl]amino}-4-pyrimidinyl)imidazo[1,2-a]pyridin-2-yl]benzamide]	250 to 1000	< 250	< 100	< 100
COc1ccc(-c2nc3ccccn3c2-c2ccnc(Nc3ccc(N4CCC(N5CCCCC5)CC4)c(C)c3OC)n2)cc1C(=O)Nc1c(F)cccc1F [Example 55, 5-[3-(2-{[4-(1,4′-bipiperidin-1′-yl)-3-methyl-2-(methyloxy)phenyl]amino}-4-pyrimidinyl)imidazo[1,2-a]pyridin-2-yl]-N-(2,6-difluorophenyl)-2-(methyloxy)benzamide]	> 1000	> 1000	100 to 500	> 500
CCCN1CCC(c2cc(OC)c(Nc3nccc(-c4c(-c5cccc(C(=O)Nc6c(F)cccc6F)c5)nc5ccccn45)n3)cc2C)CC1 [Example 159, N-(2,6-difluorophenyl)-3-[3-(2-{[5-methyl-2-(methyloxy)-4-(1-propyl-4-piperidinyl)phenyl]amino}-4-pyrimidinyl)imidazo[1,2-a]pyridin-2-yl]benzamide]	250 to 1000	< 250	< 100	< 100
COc1cc(C2CCN(CC(C)C)CC2)ccc1Nc1nccc(-c2c(-c3ccc(OC)c(C(=O)Nc4c(F)cccc4F)c3)nc3ccccn23)n1 [Example 160, N-(2,6-difluorophenyl)-2-(methyloxy)-5-{3-[2-({2-(methyloxy)-4-[1-(2-methylpropyl)-4-piperidinyl]phenyl}amino)-4-pyrimidinyl]imidazo[1,2-a]pyridin-2-yl}benzamide]	250 to 1000	< 250	< 100	< 100
COc1cc(N2CCC(N3CCN(C(C)=O)CC3)CC2)ccc1Nc1nccc(-c2c(-c3cccc(C(=O)Nc4c(F)cccc4F)c3)nc3ccccn23)n1 [Example 70]	250 to 1000	< 250	< 100	< 100
CCOc1cc(N2CCN(CCS(C)(=O)=O)CC2)ccc1Nc1nccc(-c2c(-c3ccc(OC)c(C(=O)Nc4c(F)cccc4F)c3)nc3ccccn23)n1 [Example 143, N-(2,6-difluorophenyl)-5-(3-{2-[(2-(ethyloxy)-4-{4-[2-(methylsulfonyl)ethyl)-1-piperazinyl}phenyl)amino]-4-pyrimidinyl}imidazo[1,2-a]pyridin-2-yl)-2-(methyloxy)benzamide]	250 to 1000	< 250	< 100	< 100
CCCN1CCN(c2ccc(Nc3nccc(-c4c(-c5ccc(OC)c(C(=O)Nc6c(F)cccc6F)c5)nc5ccccn45)n3)c(OCC)c2)CC1 [Example 151, N-(2,6-difluorophenyl)-5-[3-(2-{[2-(ethyloxy)-4-[4-propyl-1-piperazinyl)phenyl]amino}-4-pyrimidinyl)imidazo[1,2-a]pyridin-2-yl]-2-(methyloxy)benzamide]	250 to 1000	< 250	< 100	< 100
COc1cc(N2CCC(N3CCC(CCS(C)(=O)=O)CC3)CC2)ccc1Nc1nccc(-c2c(-c3ccc(OC)c(C(=O)Nc4c(F)cccc4F)c3)nc3ccccn23)n1 [Example 102, N-(2,6-difluorophenyl)-2-(methyloxy)-5-(3-{2-[(2-(methyloxy)-4-{4-[2-(methylsulfonyl)ethyl]-1,4′-bipiperidin-1′-yl}phenyl)amino]-4-pyrimidinyl}imidazo[1,2-a]pyridin-2-yl)benzamide]	250 to 1000	< 250	< 100	< 100
COc1cc(N2CCC(N3CCN(CCS(C)(=O)=O)CC3)CC2)ccc1Nc1nccc(-c2c(-c3ccc(OC)c(C(=O)Nc4c(F)cccc4F)c3)nc3ccccn23)n1 [Example 65, N-(2,6-difluorophenyl)-2-(methyloxy)-5-[3-(2-{[2-(methyloxy)-4-(4-{4-[2-(methylsulfonyl)-ethyl]-1-piperazinyl}-1-piperidinyl)phenyl]amino}-4-pyrimidinyl)imidazo-[1,2-a]pyridin-2-yl]benzamide]	250 to 1000	< 250	< 100	< 100

Next, values leading:

IC50 (COLO205 (colon)) [nM]	IC50 [1] [nM]	IC50 [2] [nM]	IC50 [3] [nM]	SMILES
< 250	< 250	< 100	< 100	CCOc1cc(N2CCN(CCS(C)(=O)=O)CC2)c(CC)cc1Nc1nccc(-c2c(-c3ccc(OCC)c(C(=O)Nc4c(F)cccc4F)c3)nc3ccccn23)n1 [Example 211, N-(2,6-difluorophenyl)-5-(3-{2-[(5-ethyl-2-(ethyloxy)-4-{4-[2-(methylsulfonyl)ethyl]-1-piperazinyl}phenyl)amino]-4-pyrimidinyl}imidazo[1,2-a]pyridin-2-yl)-2-(ethyloxy)benzamide]
250 to 1000	250 to 1000	< 100	100 to 500	COc1cc(N2CCC(N3CCN(S(C)(=O)=O)CC3)CC2)ccc1Nc1nccc(-c2c(-c3cccc(C(=O)Nc4c(F)cccc4F)c3)nc3c(F)cccn23)n1 [Example 192, N-(2,6-difluorophenyl)-3-(8-fluoro-3-{2-[(2-(methyloxy)-4-{4-[4-(methylsulfonyl)-1-piperazinyl]-1-piperidinyl}phenyl)amino]-4-pyrimidinyl}imidazo[1,2-a]pyridin-2-yl)benzamide]
250 to 1000	< 250	< 100	< 100	CCOc1ccc(-c2nc3ccccn3c2-c2ccnc(Nc3ccc(N4CCN(C(C)C)CC4)cc3OC)n2)cc1C(=O)Nc1c(F)cccc1F [Example 177, N-(2,6-difluorophenyl)-2-(ethyloxy)-5-[3-(2-{[4-[4-(1-methylethyl)-1-piperazinyl]-2-(methyloxy)phenyl]amino}-4-pyrimidinyl)imidazo[1,2-a]pyridin-2-yl]benzamide]
250 to 1000	< 250	< 100	< 100	COc1cc(C2CCN(CCS(C)(=O)=O)CC2)c(C)cc1Nc1nccc(-c2c(-c3cccc(C(=O)Nc4c(F)cccc4F)c3)nc3ccccn23)n1 [Example 165, N-(2,6-difluorophenyl)-3-(3-{2-[(5-methyl-2-(methyloxy)-4-{1-[2-(methylsulfonyl)ethyl]-4-piperidinyl}phenyl)amino]-4-pyrimidinyl}imidazo[1,2-a]pyridin-2-yl)benzamide]
250 to 1000	< 250	< 100	< 100	COc1cc(N2CCN(S(C)(=O)=O)CC2)ccc1Nc1nccc(-c2c(-c3ccc(OC)c(C(=O)Nc4c(F)cccc4F)c3)nc3ccccn23)n1 [Example 233, N-(2,6-difluorophenyl)-2-(methyloxy)-5-{3-[2-({2-(methyloxy)-4-[4-(methylsulfonyl)-1-piperazinyl]phenyl}amino)-4-pyrimidinyl]imidazo[1,2-a]pyridin-2-yl}benzamide]
250 to 1000	< 250	< 100	< 100	COc1cc(N2CCC(N3CCN(S(C)(=O)=O)CC3)CC2)ccc1Nc1nccc(-c2c(-c3ccc(OC)c(C(=O)Nc4c(F)cccc4F)c3)nc3cc(F)ccn23)n1 [Example 199, N-(2,6-difluorophenyl)-5-(7-fluoro-3-{2-[(2-(methyloxy)-4-{4-[4-(methylsulfonyl)-1-piperazinyl]-1-piperidinyl}phenyl)amino]-4-pyrimidinyl}imidazo[1,2-a]pyridin-2-yl)-2-(methyloxy)benzamide]
250 to 1000	< 250	< 100	< 100	COCCN1CCN(c2cc(OC)c(Nc3nccc(-c4c(-c5cccc(C(=O)Nc6c(F)cccc6F)c5)nc5ccccn45)n3)cc2C)CC1 [Example 243, N-(2,6-difluorophenyl)-3-(3-{2-[(5-methyl-2-(methyloxy)-4-{4-[2-(methyloxy)ethyl]-1-piperazinyl}phenyl)amino]-4-pyrimidinyl}imidazo[1,2-a]pyridin-2-yl)benzamide]
250 to 1000	< 250	< 100	< 100	CCOc1cc(N2CCN(C(C)C)CC2)ccc1Nc1nccc(-c2c(-c3ccc(OC)c(C(=O)Nc4c(F)cccc4F)c3)nc3ccccn23)n1 [Example 172, N-(2,6-difluorophenyl)-5-{3-[2-({2-(ethyloxy)-4-[4-(1-methylethyl)-1-piperazinyl]phenyl}-amino)-4-pyrimidinyl]imidazo[1,2-a]pyridin-2-yl}-2-(methyloxy)benzamide]
